Laboratory results published in patent publication US9375404B2 (Duchesnay Inc., priority 2012, dated 2016).
Each block holds one molecule with its values, some of them ahead of it.

Assay: clinical
Conditions: human, in vivo
Description: Data are from bioavailability studies in healthy volunteers. 5 mg: 12 healthy men, 20 mg: 42 healthy women, 25 mg: 12 healthy women, 40 mg: 18 healthy women;

- availability among pyridoxine metabolites: most available active metabolite
- dose vs. Cmax relationship (linearity of pharmacokinetics): increase more than expected
- half-life: 60 h
SMILES: Cc1ncc(COP(=O)(O)O)c(C=O)c1O [PLP, pyridoxal 5-phosphate]
- persistence in the systemic circulation: remaining in the systemic circulation the longest

- half-life (half-life): ~12 h
SMILES: CN(C)CCOC(C)(c1ccccc1)c1ccccn1 (centres unmarked) [doxylamine, reference compound]

- bioavailability at steady-state: significant bioavailability increases
- change in Cmax and AUC: significant increase
- change in T1/2: significant lengthening
- dose vs. Cmax relationship (linearity of pharmacokinetics): increase more than expected
SMILES: Cc1ncc(CO)c(C=O)c1O [pyridoxal]

- amount unchanged in blood: about 1%
- availability with increasing dose: availability is not increased
- dose vs. Cmax relationship (linearity of pharmacokinetics): Cmax increases less than expected
- inter subject and inter study variations: significantly higher
- metabolism: rapidly metabolized
SMILES: Cc1ncc(CO)c(CO)c1O [pyridoxine, reference compound]
